pEC50: −log10 of the molar value.
Biological target: T1, OX2R (Homo sapiens, UniProt O43614)
T1 construct: expressed in transfected cells; host or cells: CHO (Chinese hamster ovary) cells constitutively expressing the OX2R gene and NFAT-luciferase (CHOOX2R)
T1 sequence (O43614 1-444): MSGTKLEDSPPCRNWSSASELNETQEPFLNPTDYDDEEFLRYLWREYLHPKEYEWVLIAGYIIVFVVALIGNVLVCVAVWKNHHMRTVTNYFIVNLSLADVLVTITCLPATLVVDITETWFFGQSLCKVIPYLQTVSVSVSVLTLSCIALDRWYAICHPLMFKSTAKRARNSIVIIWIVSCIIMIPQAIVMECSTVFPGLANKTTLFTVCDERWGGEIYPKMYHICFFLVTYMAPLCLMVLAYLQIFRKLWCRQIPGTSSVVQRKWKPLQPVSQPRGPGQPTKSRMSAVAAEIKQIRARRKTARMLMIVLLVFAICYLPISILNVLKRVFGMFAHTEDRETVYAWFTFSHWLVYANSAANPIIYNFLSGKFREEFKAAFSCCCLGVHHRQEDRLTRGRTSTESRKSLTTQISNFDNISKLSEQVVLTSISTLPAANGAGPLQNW
Test: Evaluation of agonist activity against OX2R (CHOOX2R cells, Fura2AM fluorescence, FDSS3000)
Format: cell-based
Conditions: for Response (0.1 μM (%)): test compound 0.1 μM; for Response (0.1 μM (%)) / Response (1.0 μM (%)) / Response (10 μM (%)) / pEC50: CHOOX2R cells; for Response (0.1 μM (%)) / Response (1.0 μM (%)) / Response (10 μM (%)): relative to orexin-A as full agonist (100%); for Response (1.0 μM (%)): test compound 1.0 μM; for Response (10 μM (%)): test compound 10 μM; for pEC50: OX2R agonist activity; for Emax: conversion with orexin-A as full agonist (maximum agonist activity 100%)
Experimental: Evaluation of Agonist Activity Against OX2R
NFAT-luciferase gene and OX2R gene were each constitutively expressed in CHO cell, which is a cell line derived from Chinese hamster ovary to establish a cell line (CHOOX2R). The cells thereof were sown on a 96 well plate at 10000 cells/well, and cultured in a 5% FBS-added DMEM medium for 48 hr. […] After washing, HEPES buffer (75 μL) was added, a test compound solution (25 μL) was added, and changes in the fluorescence intensity were measured by FDSS3000 (Hamamatsu Photonics K.K.). The test compound was dissolved in DMSO (final concentration of DMSO was 1%), and diluted with HEPES buffer to a final concentration of 0.1 μM, 1.0 μM or 10 μM.

| Response (0.1 μM (%)) [%] | Response (1.0 μM (%)) [%] | Response (10 μM (%)) [%] | pEC50 | Emax [%] | Structure (SMILES) |
| --- | --- | --- | --- | --- | --- |
| <5 | 71 | 76 |  |  | COc1ccc(-c2cccc(C(=O)N(C)C)c2)cc1S(=O)(=O)Nc1cccc(NCCNC(=O)c2cccnc2Cl)c1 [Example 50, 2-chloro-N-(2-((3-(3′-(dimethylcarbamoyl)-4-methoxy-[1,1′-biphenyl]-3-ylsulfonamido)phenyl)amino)ethyl)nicotinamide] |
| <5 | 9 | 87 | 5.48 | 87 | COc1ccc(-c2cccc(C(=O)N(C)C)c2)cc1S(=O)(=O)Nc1cccc(NCCNC(=O)c2ncccc2Cl)c1 [Example 51, 3-chloro-N-(2-((3-(3′-(dimethylcarbamoyl)-4-methoxy-[1,1′-biphenyl]-3-ylsulfonamido)phenyl)amino)ethyl)picolinamide] |
| 40 | 79 | 64 | 6.11 | 84 | COc1ccc(-c2cccc(C(=O)N(C)C)c2)cc1S(=O)(=O)Nc1cccc(NCCNC(=O)c2cccc(F)c2)c1 [Example 52, 3′-(N-(3-((2-(3-fluorobenzamido)ethyl)amino)phenyl)sulfamoyl)-4′-methoxy-N,N-dimethyl-[1,1′-biphenyl]-3-carboxamide] |
| 46 | 89 | 66 | 5.94 | 87 | COc1ccc(-c2cccc(C(=O)N(C)C)c2)cc1S(=O)(=O)Nc1cccc(NCCNC(=O)c2cc(F)ccc2F)c1 [Example 53, 3′-(N-(3-((2-(2,5-difluorobenzamido)ethyl)amino)phenyl)sulfamoyl)-4′-methoxy-N,N-dimethyl-[1,1′-biphenyl]-3-carboxamide] |
| 33 | 168 | 126 | 6.20 | 94 | COc1ccc(-c2cccc(C(=O)N(C)C)c2)cc1S(=O)(=O)Nc1cccc(NCCNC(=O)c2cc(F)cc(F)c2)c1 [Example 54, 3′-(N-(3-((2-(3,5-difluorobenzamido)ethyl)amino)phenyl)sulfamoyl)-4′-methoxy-N,N-dimethyl-[1,1′-biphenyl]-3-carboxamide] |
| 23 | 144 | 122 |  |  | COc1ccc(-c2cccc(C(=O)N(C)C)c2)cc1S(=O)(=O)Nc1cccc(NCCNC(=O)c2cccc(Cl)n2)c1 [Example 55, 6-chloro-N-(2-((3-(3′-(dimethylcarbamoyl)-4-methoxy-[1,1′-biphenyl]-3-ylsulfonamido)phenyl)amino)ethyl)picolinamide] |
| <5 | 9 | 87 |  |  | COc1ccc(-c2cccc(C(=O)N(C)C)c2)cc1S(=O)(=O)Nc1cccc(NCCNC(=O)c2cnccc2Cl)c1 [Example 57, 4-chloro-N-(2-((3-(3′-(dimethylcarbamoyl)-4-methoxy-[1,1′-biphenyl]-3-ylsulfonamido)phenyl)amino)ethyl)nicotinamide] |
| <5 | 130 | 119 |  |  | COc1ccc(-c2cccc(C(=O)N(C)C)c2)cc1S(=O)(=O)Nc1cccc(NCCNC(=O)c2cncc(Cl)c2)c1 [Example 58, 5-chloro-N-(2-((3-(3′-(dimethylcarbamoyl)-4-methoxy-[1,1′-biphenyl]-3-ylsulfonamido)phenyl)amino)ethyl)nicotinamide] |
| <5 | <5 | 64 |  |  | COc1ccc(-c2cccc(C(=O)N(C)C)c2)cc1S(=O)(=O)Nc1cccc(NCCNC(=O)c2ccnn2C)c1 [Example 59, N-(2-((3-(3′-(dimethylcarbamoyl)-4-methoxy-[1,1′-biphenyl]-3-ylsulfonamido)phenyl)amino)ethyl)-1-methyl-1H-pyrazole-5-carboxamide] |
| <5 | 43 | 75 |  |  | COc1ccc(-c2cccc(C(=O)N(C)C)c2)cc1S(=O)(=O)Nc1cccc(NCCNC(=O)c2sccc2C)c1 [Example 60, N-(2-((3-(3′-(dimethylcarbamoyl)-4-methoxy-[1,1′-biphenyl]-3-ylsulfonamido)phenyl)amino)ethyl)-3-methylthiophene-2-carboxamide] |
| <5 | 18 | 69 |  |  | COc1ccc(-c2cccc(C(=O)N(C)C)c2)cc1S(=O)(=O)Nc1cccc(NCCNC(=O)c2ccc(Cl)s2)c1 [Example 61, 5-chloro-N-(2-((3-(3′-(dimethylcarbamoyl)-4-methoxy-[1,1′-biphenyl]-3-ylsulfonamido)phenyl)amino)ethyl)thiophene-2-carboxamide] |
| 71 | 92 | 94 | 6.99 | 99 | COc1ccc(-c2cccc(C(=O)N(C)C)c2)cc1S(=O)(=O)Nc1cccc(NCCNC(=O)c2sccc2Cl)c1 [Example 62, 3-chloro-N-(2-((3-(3′-(dimethylcarbamoyl)-4-methoxy-[1,1′-biphenyl]-3-ylsulfonamido)phenyl)amino)ethyl)thiophene-2-carboxamide] |
| <5 | 81 | 82 |  |  | COc1ccc(-c2cccc(C(=O)N(C)C)c2)cc1S(=O)(=O)Nc1cccc(NCCNC(=O)c2nccn2C)c1 [Example 63, N-(2-((3-(3′-(dimethylcarbamoyl)-4-methoxy-[1,1′-biphenyl]-3-ylsulfonamido)phenyl)amino)ethyl)-1-methyl-1H-imidazole-2-carboxamide] |
| <5 | 68 | 72 |  |  | COc1ccc(-c2cccc(C(=O)N(C)C)c2)cc1S(=O)(=O)Nc1cccc(NCCNC(=O)c2cn(C)cn2)c1 [Example 64, N-(2-((3-(3′-(dimethylcarbamoyl)-4-methoxy-[1,1′-biphenyl]-3-ylsulfonamido)phenyl)amino)ethyl)-1-methyl-1H-imidazole-4-carboxamide] |
| 74 | 96 | 74 | 6.10 | 85 | COc1ccc(-c2cccc(C(=O)N(C)C)c2)cc1S(=O)(=O)Nc1cccc(NCCNC(=O)c2ccccc2C)c1 [Example 65, 4′-methoxy-N,N-dimethyl-3′-(N-(3-((2-(2-methylbenzamido)ethyl)amino)phenyl)sulfamoyl)-[1,1′-biphenyl]-3-carboxamide] |
| 55 | 96 | 76 |  |  | COc1ccc(-c2cccc(C(=O)N(C)C)c2)cc1S(=O)(=O)Nc1cccc(NCCNC(=O)c2ccoc2C)c1 [Example 67, N-(2-((3-(3′-(dimethylcarbamoyl)-4-methoxy-[1,1′-biphenyl]-3-ylsulfonamido)phenyl)amino)ethyl)-2-methylfuran-3-carboxamide] |
| 42 | 86 | 74 |  |  | COc1ccc(-c2cccc(C(=O)N(C)C)c2)cc1S(=O)(=O)Nc1cccc(NCCNC(=O)c2occc2C)c1 [Example 68, N-(2-((3-(3′-(dimethylcarbamoyl)-4-methoxy-[1,1′-biphenyl]-3-ylsulfonamido)phenyl)amino)ethyl)-3-methylfuran-2-carboxamide] |
| 67 | 123 | 111 |  |  | COc1ccc(-c2cccc(C(=O)N(C)C)c2)cc1S(=O)(=O)Nc1cccc(NCCNC(=O)c2ccccc2C(F)(F)F)c1 [Example 69, 4′-methoxy-N,N-dimethyl-3′-(N-(3-((2-(2-(trifluoromethyl)benzamido)ethyl)amino)phenyl)sulfamoyl)-[1,1′-biphenyl]-3-carboxamide] |
| 34 | 105 | 85 |  |  | COc1ccc(-c2cccc(C(=O)N(C)C)c2)cc1S(=O)(=O)Nc1cccc(NCCNC(=O)c2c(F)cccc2OC)c1 [Example 70, 3′-(N-(3-((2-(2-fluoro-6-methoxybenzamido)ethyl)amino)phenyl)sulfamoyl)-4′-methoxy-N,N-dimethyl-[1,1′-biphenyl]-3-carboxamide] |
| <5 | 39 | 80 |  |  | COc1ccc(-c2cccc(C(=O)N(C)C)c2)cc1S(=O)(=O)Nc1cccc(NCCNC(=O)c2ccccc2C#N)c1 [Example 71, 3′-(N-(3-((2-(2-cyanobenzamido)ethyl)amino)phenyl)sulfamoyl)-4′-methoxy-N,N-dimethyl-[1,1′-biphenyl]-3-carboxamide] |

— US9815787B2, “Sulfonamide derivative or pharmaceutically acceptable acid addition salt thereof” (UNIVERSITY OF TSUKUBA, priority 2013, dated 2017)
